Experimental data: US11192867B2, “Microbiocidal oxadiazole derivatives” (SYNGENTA PARTICIPATIONS AG, priority 2016, dated 2021)

What was measured:
[1] = test system: Puccinia recondita f. sp. Tritici; test: Fungicidal activity against Puccinia recondita f. sp. Tritici / wheat / leaf disc preventative (brown rust); type: in vivo; details: foliar, 200 ppm in the applied formulation, wheat leaf segments cv. Kanzler, inoculated 1 day after application, vs untreated control, read-out: disease control
Procedure: Leaf disks or leaf segments of various plant species are cut from plants grown in a greenhouse. The cut leaf disks or segments are placed in multiwell plates (24-well format) onto water agar. The leaf disks are sprayed with a test solution before (preventative) or after (curative) inoculation. Compounds to be tested are prepared as DMSO solutions (max. 10 mg/ml) which are diluted to the appropriate concentration with 0.025% Tween20 just before spraying. The inoculated leaf disks or segments are incubated under defined conditions (temperature, relative humidity, light, etc.) according to the respective test system. A single evaluation of disease level is carried out 3 to 14 days after inoculation, depending on the pathosystem. Percent disease control relative to the untreated check leaf disks or segments is then calculated. Wheat leaf segments cv. Kanzler were placed on agar in multiwell plates (24-well format) and sprayed with the formulated test compound diluted in water. The leaf disks were inoculated with a spore suspension of the fungus 1 day after application. The inoculated leaf segments were incubated at 19° C. and 75% relative humidity (rh) under a light regime of 12 hours light/12 hours darkness in a climate cabinet and the activity of a compound was assessed as percent disease control compared to untreated when an appropriate level of disease damage appears in untreated check leaf segments (7 to 9 days after application). The following compounds at 200 ppm in the applied formulation give at least 80% disease control in this test when compared to untreated control leaf disks under the same conditions, which show extensive disease development.

Phakopsora pachyrhizi = test: Fungicidal activity against Phakopsora pachyrhizi / soybean / leaf disc preventative (Asian soybean rust); type: in vivo; details: foliar, 200 ppm in the applied formulation, soybean leaf disks, vs untreated control, read-out: disease control
Procedure: Leaf disks or leaf segments of various plant species are cut from plants grown in a greenhouse. The cut leaf disks or segments are placed in multiwell plates (24-well format) onto water agar. The leaf disks are sprayed with a test solution before (preventative) or after (curative) inoculation. Compounds to be tested are prepared as DMSO solutions (max. 10 mg/ml) which are diluted to the appropriate concentration with 0.025% Tween20 just before spraying. The inoculated leaf disks or segments are incubated under defined conditions (temperature, relative humidity, light, etc.) according to the respective test system. A single evaluation of disease level is carried out 3 to 14 days after inoculation, depending on the pathosystem. Percent disease control relative to the untreated check leaf disks or segments is then calculated. Soybean leaf disks are placed on water agar in multiwell plates (24-well format) and sprayed with the formulated test compound diluted in water. One day after application leaf discs are inoculated by spraying a spore suspension on the lower leaf surface. After an incubation period in a climate cabinet of 24-36 hours in darkness at 20° C. and 75% rh leaf disc are kept at 20° C. with 12 hours light/12 hours and 75% rh. The activity of a compound is assessed as percent disease control compared to untreated when an appropriate level of disease damage appears in untreated check leaf disks (12 to 14 days after application). The following compounds at 200 ppm in the applied formulation give at least 80% disease control in this test when compared to untreated control leaf disks under the same conditions, which show extensive disease development.

[2] = test system: Glomerella lagenarium (Colletotrichum lagenarium); test: Fungicidal activity against Glomerella lagenarium (Colletotrichum lagenarium) liquid culture / cucumber / preventative (anthracnose); type: cell-based; details: Colletotrichum orbiculare, 72 h; 20 ppm in the applied formulation; liquid culture (PDB), growth inhibition measured photometrically 3 to 4 days after application; vs untreated control; read-out: disease control
Procedure: Mycelia fragments or conidia suspensions of a fungus prepared either freshly from liquid cultures of the fungus or from cryogenic storage, are directly mixed into nutrient broth. DMSO solutions of the test compound (max. 10 mg/ml) are diluted with 0.025% Tween20 by a factor of 50 and 10 μl of this solution is pipetted into a microtiter plate (96-well format). The nutrient broth containing the fungal spores/mycelia fragments is then added to give an end concentration of the tested compound. The test plates are incubated in the dark at 24° C. and 96% relative humidity. The inhibition of fungal growth is determined photometrically after 2 to 7 days, depending on the pathosystem, and percent antifungal activity relative to the untreated check is calculated.
Conidia of the fungus from cryogenic storage are directly mixed into nutrient broth (PDB—potato dextrose broth). After placing a (DMSO) solution of test compound into a microtiter plate (96-well format), the nutrient broth containing the fungal spores is added. The test plates are incubated at 24° C. and the inhibition of growth is measured photometrically 3 to 4 days after application.
The following compounds at 20 ppm in the applied formulation give at least 80% disease control in this test when compared to untreated control under the same conditions, which show extensive disease development.

O=C(NCC=NOCC=C(Cl)Cl)c1ccc(-c2noc(C(F)(F)F)n2)cc1 [Compound 1.79, N-[2-(3,3-dichloroallyloxy-imino)ethyl]-4-[5-(trifluoromethyl)-1,2,4-oxadiazol-3-yl]benzamide]
≥ 80%: pest or weed control at 200 ppm [1] | pest or weed control at 200 ppm (Phakopsora pachyrhizi) | inhibition of growth at 20 ppm [2]

CC(C)=CCON=C(C)CNC(=O)c1ccc(-c2noc(C(F)(F)F)n2)cc1 [Compound 1.123, N-[2-(3-methylbut-2-enoxyimino)propyl]-4-[5-(trifluoromethyl)-1,2,4-oxadiazol-3-yl]benzamide]
≥ 80%: pest or weed control at 200 ppm [1] | pest or weed control at 200 ppm (Phakopsora pachyrhizi) | inhibition of growth at 20 ppm [2]

CCCCON=CC(C)NC(=O)c1ccc(-c2noc(C(F)(F)F)n2)cc1 (stereo not drawn) [Compound 1.40, N-(2-butoxyimino-1-methyl-ethyl)-4-[5-(trifluoromethyl)-1,2,4-oxadiazol-3-yl]benzamide]
≥ 80%: pest or weed control at 200 ppm [1] | pest or weed control at 200 ppm (Phakopsora pachyrhizi) | inhibition of growth at 20 ppm [2]

COc1ccc(CON=CCNC(=O)c2ccc(-c3noc(C(F)(F)F)n3)cc2)cc1 [Compound 1.64, N-[2-[(4-methoxyphenyl)methoxyimino]ethyl]-4-[5-(trifluoromethyl)-1,2,4-oxadiazol-3-yl]benzamide]
≥ 80%: pest or weed control at 200 ppm [1] | pest or weed control at 200 ppm (Phakopsora pachyrhizi) | inhibition of growth at 20 ppm [2]

C=C(Cl)CON=C(C)CNC(=O)c1ccc(-c2noc(C(F)(F)F)n2)cc1 [Compound 1.144, N-[2-(2-chloroallyloxy-imino)propyl]-4-[5-(trifluoromethyl)-1,2,4-oxadiazol-3-yl]benzamide]
≥ 80%: pest or weed control at 200 ppm [1] | pest or weed control at 200 ppm (Phakopsora pachyrhizi) | inhibition of growth at 20 ppm [2]

COc1ccccc1CON=CCNC(=O)c1ccc(-c2noc(C(F)(F)F)n2)cc1 [Compound 1.68, N-[2-[(2-methoxyphenyl)methoxyimino]ethyl]-4-[5-(trifluoromethyl)-1,2,4-oxadiazol-3-yl]benzamide]
≥ 80%: pest or weed control at 200 ppm [1] | pest or weed control at 200 ppm (Phakopsora pachyrhizi) | inhibition of growth at 20 ppm [2]

CC(C=NOCc1ccccc1CC(=O)O)NC(=O)c1ccc(-c2noc(C(F)(F)F)n2)cc1 (stereo not drawn) [Compound 1.48, 2-[2-[[2-[[4-[5-(trifluoromethyl)-1,2,4-oxadiazol-3-yl]benzoyl]amino]propylideneamino]oxymethyl]phenyl] acetic acid]
≥ 80%: pest or weed control at 200 ppm [1] | pest or weed control at 200 ppm (Phakopsora pachyrhizi) | inhibition of growth at 20 ppm [2]

CC(CNC(=O)c1ccc(-c2noc(C(F)(F)F)n2)cc1)=NOC(C)(C)C [Compound 1.132, N-(2-tert-butoxyiminopropyl)-4-[5-(trifluoromethyl)-1,2,4-oxadiazol-3-yl]benzamide]
≥ 80%: pest or weed control at 200 ppm [1] | pest or weed control at 200 ppm (Phakopsora pachyrhizi) | inhibition of growth at 20 ppm [2]

CC(CNC(=O)c1ccc(-c2noc(C(F)(F)F)n2)cc1)=NOCC(F)(F)F [Compound 1.139, N-[2-(2,2,2-trifluoroethoxy-imino)propyl]-4-[5-(trifluoromethyl)-1,2,4-oxadiazol-3-yl]benzamide]
≥ 80%: pest or weed control at 200 ppm [1] | pest or weed control at 200 ppm (Phakopsora pachyrhizi) | inhibition of growth at 20 ppm [2]

O=C(O)Cc1ccccc1CON=CCNC(=O)c1ccc(-c2noc(C(F)(F)F)n2)cc1 [Compound 1.92, 2-[2-[[2-[[4-[5-(trifluoromethyl)-1,2,4-oxadiazol-3-yl]benzoyl]amino]ethylideneamino]oxymethyl]phenyl] acetic acid]
≥ 80%: pest or weed control at 200 ppm [1] | pest or weed control at 200 ppm (Phakopsora pachyrhizi) | inhibition of growth at 20 ppm [2]
